Patent US5599974A, “Aldehydic agents for allosteric modification of hemoglobin” (Center for Innovative Technology, priority 1994, dated 1997)

Legend:
human hemoglobin (HbA) = molecular target: T1, human hemoglobin (HbA) (Homo sapiens, UniProt P69905); test: Oxygen equilibrium studies of hemoglobin solutions (Hem-O-Scan oxygen dissociation curves); format: biochemical; settings: hemoglobin solution
T1 construct: hemoglobin solution
Description: In blood, hemoglobin is in equilibrium between two allosteric structures. In the "T" (for tense) state, hemoglobin is de-oxygenated. In the "R" (for relaxed) state, hemoglobin is oxygenated. An oxygen equilibrium curve can be scanned using well known equipment such as the Aminco™ Hem-o-scan to evaluate the affinity and degree of cooperativity (allosteric action) of hemoglobin. In the scan, the Y-axis plots the percent of hemoglobin oxygenation and the X-axis plots the partial pressure of oxygen in millimeters of mercury (mm Hg). If a horizontal line is drawn from the 50% oxygen saturation point to the scanned curve and a vertical line is drawn from the intersection point of the horizontal line with the curve to the partial pressure X-axis, a value commonly known as the P50 is determined. This is the pressure when the hemoglobin is 50% saturated with oxygen. By comparing the P50 value for treated hemoglobin to the P50 value for untreated normal adult human hemoglobin (HbA) under physiological conditions (i.e., 37° C., pH=7.4, and partial carbon dioxide pressure of 40 mm Hg), the degree of allosteric modification can be determined. When the P50 value for treated hemoglobin is lower than for HbA, a high oxygen affinity hemoglobin is indicated and the curve is said to be "left-shifted". Conversely, when the P50 value for treated hemoglobin is higher than for HbA, a low oxygen affinity hemoglobin is indicated and the curve is said to be "right-shifted".
In the oxygen equilibrium studies, the HbA was further purified by dialysis against pH 8.6. Tris buffer (50 mM, containing 40 mg EDTA/L) to remove any residual A2 hemoglobin. The pure HbA fraction was concentrated by using a Schleicher and Schuell colloidion bag apparatus, available from Schleicher and Schuell, Inc., with HEPES buffer (50 mM, pH 7.4) as the exchange buffer. The Hb concentration was determined by using the cyanmet method. The Hb concentration at this point was usually found to be around 35 g% (approximately 5.4 mM). Less than 5% methemoglobin was noted even after several days at 4° C. Oxygen dissociation curves were recorded on an AMINCO Hem-0-Scan oxygen dissociation analyzer available from Travenol Laboratories.
All compounds were dissolved in 50 mM HEPES buffer, pH 7.4, to give 20 mM of drug solution. The Hb (5.4 mM, in HEPES, pH 7.4) and the test compounds (20 mM) were mixed in 1:1 volume ratio (50μL of Hb+50μL of compound solution) to give final concentrations of 2.7 mM and 10mM, respectively (a molar ratio of test compound to hemoglobin of approximately 4:1). A control experiment was prepared by the addition of 50 μL of Hb to 50 μL of HEPES buffer. The mixtures were incubated at 4° C. for two hours before running the oxygen dissociation curves.

whole blood = test: Whole-blood studies: effect on the oxygen affinity of whole blood; format: cell-based
HbA = molecular target: T2, HbA (Homo sapiens, UniProt P69905); test: X-ray diffraction analysis of HbA/drug complexes (difference electron-density maps); format: binding; settings: HbA tetramer/drug molar ratio 1:5 (TB17 1:10), Schiff base reduced, deoxygenated crystals
T2 construct: co-crystals with compounds
Protocol: Reaction of the drug compounds with HbA, crystallization and X-ray data collection of the HbA/drug complexes were performed according to the procedures of Wireko et al., Proc. Natl. Acad. Sci. USA, 1991, 88, 2209, which is herein incorporated by reference, with some slight modifications. Freshly prepared solutions of the synthesized compounds in potassium phosphate buffer were incubated at oxy HbA tetramer/drug molar ratios of 1:5 or 1:10 for at least 24 hours. Sodium cyanoborohydrie in phosphate buffer was added in 10- to 50-fold molar excess of HbA tetramer to reduce the Schiff's base adduct for at least 24 hours. The deoxygenated HbA/compound complexes were set up for crystallizations following the procedures described in Perutz et al., Crys. Growth, 1968, 2, 54, which is herein incorporated by reference, with some slight modifications. X-ray quality crystals for all complexes were obtained after three to seven days. Crystals of TB19 (discussed below) grown with HbA incubated and reduced under deoxygenated conditions was also used for data collection.
X-ray diffraction data for the MS2 complex (discussed below) was collected using a Rigaku AFC5R rotating anode diffractometer to a resolution of 4Å. All hk±1 reflections and their Friedel pairs were collected. One crystal, dimensions 0.3 to 1.2 mm was used for collection. Diffraction data for the rest of the complexes were collected with a Rigaku AFC5R rotating anode diffractometer equipped with an R-axis IIC image plate system, all to a resolution of 1.94A. Crystals of linear dimensions 0.2 to 0.5 mm were used. Data reduction, structure solution and calculation of Fourier difference electron-density maps were as described in Wireko et al., Proc. Natl. Acad. Sci. USA, 1991, 88, 2209.
Models of the compounds created with MMOD and minimized with MM2 force field were fitted to the electron-density by using FRODO on an EVANS and SUTHERLAND PS390 graphic station.
X-ray diffraction analyses were used to study several of the new drug complexes including MS1, MS2, TB8, TB10, TB17, TB19, TB32, TB36, TB62, and TB63. The difference electron-density maps of all complexes discussed are that of the HbA tetramer/drug molar ratio of 1:5, except TB17 which is 1:10. All drug molecules contain at least two functionalities, an aldehyde and a carboxylate, common to all of them. […] The only exception was MS2 where only one of the carboxylate oxygens was involved in the salt bridge interaction. The above binding site, which is common to all of the complexes, will be referred to as the α-cleft binding site. Some of the above drug compounds have additional functional groups which are also involved in additional interaction with other HbA residues, including hydrogen bonding, van der Waals interaction, and a second covalent bonding.
All complexes have two molecules of the drug compounds bound at the above-mentioned α-cleft site and are related by the two fold noncrystallographic axis. These sites are further noted as the α1-cleft site (Val-1α1 binding site), and the α2-cleft site (Val-1α2 binding site). In all complexes, the electron density at the α2-cleft site were slightly bigger and better defined than the electron density at the α1-cleft site. In addition to the binding at the α-cleft site, some of the drug compounds also bind to other secondary sites, including other sites in the α-cleft water cavity, the β-cleft water cavity located at Val-1β, and the Hb polymer contact site located near the residues His-116β and His-117β.

- direction of shift of the oxygen equilibrium curve (human hemoglobin (HbA)): right shift
- P50 D (aver.) (human hemoglobin (HbA); Hb 2.7 mM, compound 10 mM (approx. 4:1), 50 mM HEPES pH 7.4, incubated at 4° C. for two hours): 42.0 mm Hg
- ΔP50 (P50 D - P50 C) (human hemoglobin (HbA); Hb 2.7 mM, compound 10 mM, 50 mM HEPES pH 7.4, positive = right shift): 20.0 mm Hg
Compound: O=Cc1ccc(OCCCCOc2ccc(C=O)cc2C(=O)O)c(C(=O)O)c1 [TB19, 1,4-Bis(2-carboxy-4-formylphenoxy)-butane]
- P50 D (aver.) (whole blood; heparinized whole blood mixed 1:1 with test compound solution, equilibrated 1 hour at 37° C., P50 C 25.0): 19.5 mm Hg
- direction of shift of the oxygen equilibrium curve (whole blood; whole blood): left shift
- ΔP50 D (whole blood; whole blood, 1 hour at 37° C., P50 D - P50 C): -5.5 mm Hg
- binding sites in HbA seen in the difference electron-density map (HbA): binding exclusively at the two symmetry-relatedα-cleft sites
